{"source": "patent US20230322846A9", "about": "“NEUROACTIVE STEROIDS AND THEIR METHODS OF USE” (SAGE THERAPEUTICS, INC., priority 2018, published 2023)", "data": [{"molecular_target": "[35S]-TBPS binding, rat brain cortical membranes", "experiment": "Steroid inhibition of [35S]-TBPS binding", "details": "3 nM [35S]-TBPS, in the presence of 5 mM GABA", "outline": "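Rat cortical P2 membranes incubated 90 min at room temperature with 3 nM [35S]-TBPS, […] and test compound (0.5% DMSO final) in NaCl/Na–K phosphate pH 7.4; nonspecific binding with […]. Filter-bound radioactivity counted; IC50 and Imax from nonlinear fits, mean ± SEM.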", "units": {"IC50": "nM"}, "values": [{"smiles": "COC[C@@]1(O)CC[C@H]2[C@H](CC[C@@H]3[C@@H]2CC[C@]2(C)[C@@H]([C@H](C)NC(=O)c4ccc(F)cn4)CC[C@@H]32)C1", "note": "[Example 126]", "IC50": "1000 to 10000"}, {"smiles": "CCC[C@@]1(O)CC[C@H]2[C@H](CC[C@@H]3[C@@H]2CC[C@@]2(C)[C@H]3CC[C@]2(O)[C@@H](C)Cn2cc(C#N)cn2)C1", "note": "[Example 347, 1-((S)-2-((3R,5R,8R,9R,10S,13S,14S,17S)-3,17-dihydroxy-13-methyl-3-propylhexadecahydro-1H-cyclopenta[a]phenanthren-17-yl)propyl)-1H-pyrazole-4-carbonitrile]", "IC50": "1000 to 10000"}, {"smiles": "CCC[C@@]1(O)CC[C@H]2[C@H](CC[C@@H]3[C@@H]2CC[C@]2(C)[C@@H]([C@@H](C)Nc4ccc(C#N)cn4)CC[C@@H]32)C1", "note": "[Example 90, 6-(((R)-1-((3R,5R,8R,9R,10S,13S,14S,17S)-3-hydroxy-13-methyl-3-propylhexadecahydro-1H-cyclopenta[a]phenanthren-17-yl)ethyl)amino)nicotinonitrile]", "IC50": "100 to 1000"}, {"smiles": "CC[C@@]1(O)CC[C@@]2(C)[C@H](CC[C@@H]3[C@@H]2CC[C@]2(C)[C@@H]([C@H](C)Cn4ccc(C#N)n4)CC[C@@H]32)C1", "note": "[Example 62, 1-((S)-2-((3R,5R,8R,9S,10S,13S,14S,17R)-3-ethyl-3-hydroxy-10,13-dimethylhexadecahydro-1H-cyclopenta[a]phenanthren-17-yl)propyl)-1H-pyrazole-3-carbonitrile]", "IC50": "< 100"}, {"smiles": "CCOC[C@@]1(O)CC[C@@]2(C)[C@H](CC[C@@H]3[C@@H]2CC[C@]2(C)[C@@H]([C@H](C)N[C@@H](C)c4ccccc4)CC[C@@H]32)C1", "note": "[Example 212]", "IC50": "1000 to 10000"}, {"smiles": "COC[C@@]1(O)CC[C@H]2[C@H](CC[C@@H]3[C@@H]2CC[C@]2(C)[C@@H]([C@@H](C)NC(=O)c4ccc(OC(F)(F)F)cn4)CC[C@@H]32)C1", "note": "[Example 128]", "IC50": "100 to 1000"}, {"smiles": "COC[C@@]1(O)CC[C@H]2[C@@H](CC[C@@H]3[C@@H]2CC[C@]2(C)[C@@H](CCn4nnc(C)n4)CC[C@@H]32)C1", "note": "[Example 295, (3R,5S,8R,9R,10S,13R,14S,17R)-3-(methoxymethyl)-13-methyl-17-(2-(5-methyl-2H-tetrazol-2-yl)ethyl)hexadecahydro-1H-cyclopenta[a]phenanthren-3-ol]", "IC50": "< 100"}, {"smiles": "COC[C@@]1(O)CC[C@H]2[C@H](CC[C@@H]3[C@@H]2CC[C@]2(C)[C@@H]([C@@H](C)Cc4nc(C)ccc4Cl)CC[C@@H]32)C1", "note": "[Example 424]", "IC50": "< 100"}, {"smiles": "CCOC[C@@]1(O)CC[C@@]2(C)[C@H](CC[C@@H]3[C@@H]2CC[C@]2(C)[C@@H]([C@@H](CC)Nc4ccc(C#N)nc4)CC[C@@H]32)C1", "note": "[Example 495, 5-(((R)-1-((3R,5R,8R,9S,10S,13S,14S,17S)-3-(ethoxymethyl)-3-hydroxy-10,13-dimethylhexadecahydro-1H-cyclopenta[a]phenanthren-17-yl)propyl)amino)picolinonitrile]", "IC50": "100 to 1000"}, {"smiles": "COC[C@@]1(O)CC[C@H]2[C@H](CC[C@@H]3[C@@H]2CC[C@@]2(C)[C@H]3CC[C@]2(O)[C@@H](C)Cn2cc(C#N)cn2)C1", "note": "[Example 354]", "IC50": "1000 to 10000"}, {"smiles": "CCC[C@@]1(O)CC[C@@]2(C)[C@H](CC[C@@H]3[C@@H]2[C@@H](O)C[C@]2(C)[C@@H]([C@@H](C)Cn4cc(C#N)cn4)CC[C@@H]32)C1", "note": "[Example 309, 1-((R)-2-((3R,5R,8S,9S,10S,11S,13S,14S,17R)-3,11-dihydroxy-10,13-dimethyl-3-propylhexadecahydro-1H-cyclopenta[a]phenanthren-17-yl)propyl)-1H-pyrazole-4-carbonitrile]", "IC50": "< 100"}, {"smiles": "Cc1cnc(C[C@@H](C)[C@H]2CC[C@H]3[C@@H]4CC[C@@H]5C[C@](C)(O)CC[C@@H]5[C@H]4CC[C@]23C)cn1", "note": "[Example 440]", "IC50": "< 100"}, {"smiles": "CC[C@]12CC[C@@](C)(O)C[C@H]1CC[C@H]1[C@@H]3CC[C@H](C(C)Cn4cc(C#N)cn4)[C@@]3(C)CC[C@@H]12", "note": "(stereo in doubt) [Example 325, 1-((S)-2-((3R,5R,8S,9S,10S,13S,14S,17R)-10-ethyl-3-hydroxy-3,13-dimethylhexadecahydro-1H-cyclopenta[a]phenanthren-17-yl)propyl)-1H-pyrazole-4-carbonitrile]", "IC50": "< 100"}, {"smiles": "COC[C@@]1(O)CC[C@H]2[C@H](CC[C@@H]3[C@@H]2CC[C@]2(C)[C@@H]([C@@H](C)Nc4ccc(C#N)cc4C)CC[C@@H]32)C1", "note": "[Example 252]", "IC50": "< 100"}, {"smiles": "CCOC[C@@]1(O)CC[C@H]2[C@H](CC[C@@H]3[C@@H]2CC[C@]2(C)[C@@H]([C@@H](C)Cn4nnc(C)n4)CC[C@@H]32)C1", "note": "[Example 290, (3R,5R,8R,9R,10S,13S,14S,17R)-3-(ethoxymethyl)-13-methyl-17-((R)-1-(5-methyl-2H-tetrazol-2-yl)propan-2-yl)hexadecahydro-1H-cyclopenta[a]phenanthren-3-ol]", "IC50": "< 100"}, {"smiles": "CCC[C@@]1(O)CC[C@H]2[C@@H](CC[C@@H]3[C@@H]2CC[C@]2(C)[C@@H]([C@@H](C)Cn4nnc(C)n4)CC[C@@H]32)C1", "note": "[Example 329, (3R,5S,8R,9R,10S,13S,14S,17R)-13-methyl-17-((R)-1-(5-methyl-2H-tetrazol-2-yl)propan-2-yl)-3-propylhexadecahydro-1H-cyclopenta[a]phenanthren-3-ol]", "IC50": "≥ 10000"}, {"smiles": "CCOC[C@@]1(O)CC[C@H]2[C@H](CC[C@@H]3[C@@H]2CC[C@]2(C)[C@@H]([C@@H](C)N4CCc5cc(C#N)ccc5C4=O)CC[C@@H]32)C1", "note": "[Example 46, 2-((R)-1-((3R,5R,8R,9R,10S,13S,14S,17S)-3-(ethoxymethyl)-3-hydroxy-13-methylhexadecahydro-1H-cyclopenta[a]phenanthren-17-yl)ethyl)-1-oxo-1,2,3,4-tetrahydroisoquinoline-6-carbonitrile]", "IC50": "< 100"}, {"smiles": "C[C@@H](Cn1ccnn1)[C@H]1CC[C@H]2[C@@H]3CC[C@H]4C[C@](C)(O)CC[C@@H]4[C@H]3CC[C@]12C", "note": "[Example 59, (3R,5S,8R,9R,10S,13S,14S,17R)-17-((R)-1-(1H-1,2,3-triazol-1-yl)propan-2-yl)-3,13-dimethylhexadecahydro-1H-cyclopenta[a]phenanthren-3-ol]", "IC50": "100 to 1000"}, {"smiles": "CCOC[C@@]1(O)CC[C@H]2[C@H](CC[C@@H]3[C@@H]2CC[C@]2(C)[C@@H]([C@@H](C)Nc4ccc(C#N)nc4)CC[C@@H]32)C1", "note": "[Example 261]", "IC50": "100 to 1000"}, {"smiles": "CCOC[C@@]1(O)CC[C@H]2[C@H](CC[C@@H]3[C@@H]2CC[C@]2(C)[C@@H]([C@@H](CC)Cn4nccc4C#N)CC[C@@H]32)C1", "note": "[Example 500, 1-((R)-2-((3R,5R,8R,9R,10S,13S,14S,17R)-3-(ethoxymethyl)-3-hydroxy-13-methylhexadecahydro-1H-cyclopenta[a]phenanthren-17-yl)butyl)-1H-pyrazole-5-carbonitrile]", "IC50": "1000 to 10000"}, {"smiles": "C[C@H]([C@H]1CC[C@H]2[C@@H]3CC[C@@H]4C[C@](C)(O)CC[C@@H]4[C@H]3CC[C@]12C)n1cc(C#N)cn1", "note": "[Example 156, 1-((R)-1-((3R,5R,8R,9R,10S,13S,14S,17S)-3-hydroxy-3,13-dimethylhexadecahydro-1H-cyclopenta[a]phenanthren-17-yl)ethyl)-1H-pyrazole-4-carbonitrile]", "IC50": "< 100"}, {"smiles": "Cc1cnc(C[C@H](C)[C@H]2CC[C@H]3[C@@H]4CC[C@@H]5C[C@](C)(O)CC[C@@H]5[C@H]4CC[C@]23C)nc1", "note": "[Example 437]", "IC50": "< 100"}, {"smiles": "C[C@H](NC(=O)c1cccc(C#N)c1)[C@H]1CC[C@H]2[C@@H]3CC[C@@H]4C[C@](C)(O)CC[C@@H]4[C@H]3CC[C@]12C", "note": "[Example 110]", "IC50": "1000 to 10000"}, {"smiles": "CCOC[C@@]1(O)CC[C@H]2[C@H](CC[C@@H]3[C@@H]2CC[C@]2(C)[C@@H]([C@@H](CC)Nc4ccc(C#N)nc4)CC[C@@H]32)C1", "note": "[Example 503]", "IC50": "100 to 1000"}, {"smiles": "Cc1cc(C#N)ccc1N[C@@H](C)[C@H]1CC[C@H]2[C@@H]3CC[C@@H]4C[C@](C)(O)CC[C@@H]4[C@H]3CC[C@]12C", "note": "[Example 251]", "IC50": "100 to 1000"}, {"smiles": "CCC[C@@]1(O)CC[C@@]2(C)[C@H](CC[C@H]3[C@@H]4CC[C@H](C(C)Cn5cc(C#N)cn5)[C@@]4(C)CC(=O)[C@@H]32)C1", "note": "(stereo in doubt) [Example 340, 1-((R)-2-((3R,5R,8S,9S,10S,13S,14S,17R)-3-hydroxy-10,13-dimethyl-11-oxo-3-propylhexadecahydro-1H-cyclopenta[a]phenanthren-17-yl)propyl)-1H-pyrazole-4-carbonitrile]", "IC50": "< 100"}, {"smiles": "CCC[C@@]1(O)CC[C@H]2[C@H](CC[C@@H]3[C@@H]2CC[C@]2(C)[C@@H]([C@@H](C)Nc4ccc(-n5ccc(C)n5)nc4C)CC[C@@H]32)C1", "note": "[Example 91, (3R,5R,8R,9R,10S,13S,14S,17S)-13-methyl-17-((R)-1-((2-methyl-6-(3-methyl-1H-pyrazol-1-yl)pyridin-3-yl)amino)ethyl)-3-propylhexadecahydro-1H-cyclopenta[a]phenanthren-3-ol]", "IC50": "100 to 1000"}, {"smiles": "C[C@H]([C@H]1CC[C@H]2[C@@H]3CC[C@@H]4C[C@](C)(O)CC[C@@H]4[C@H]3CC[C@]12C)N1CCc2cc(C#N)ccc2C1=O", "note": "[Example 45, 2-((R)-1-((3R,5R,8R,9R,10S,13S,14S,17S)-3-hydroxy-3,13-dimethylhexadecahydro-1H-cyclopenta[a]phenanthren-17-yl)ethyl)-1-oxo-1,2,3,4-tetrahydroisoguinoline-6-carbonitrile]", "IC50": "< 100"}]}]}
